According to PMC6804253, “Predicting and Experimentally Validating Hot-Spot Residues at Protein–Protein Interfaces” (ACS Chemical Biology, 2019):
Read-outs that look alike come from different tables or passages of the source.

B1: 1IAR TA6A (protein, UniProt P05112 25-153, looked up, variant T6A)
Interleukin-4: HKCDIALQEIIKTLNSLTEQKTLCTELTVTDIFAASKNTTEKETFCRAATVLRQFYSHHEKDTRCLGATAQQFHRHKQLIRFLKRLDRNLWGLAGLNSCPVKEANQSTLENFLERLKTIMREKYSKCSS
B2: 1IAR TA13A (protein, UniProt P05112 25-153, looked up, variant T13A)
Interleukin-4: HKCDITLQEIIKALNSLTEQKTLCTELTVTDIFAASKNTTEKETFCRAATVLRQFYSHHEKDTRCLGATAQQFHRHKQLIRFLKRLDRNLWGLAGLNSCPVKEANQSTLENFLERLKTIMREKYSKCSS
B3: 1IAR NA89A (protein, UniProt P05112 25-153, looked up, variant N89A)
Interleukin-4: HKCDITLQEIIKTLNSLTEQKTLCTELTVTDIFAASKNTTEKETFCRAATVLRQFYSHHEKDTRCLGATAQQFHRHKQLIRFLKRLDRALWGLAGLNSCPVKEANQSTLENFLERLKTIMREKYSKCSS
B4: 1IAR SA16A (protein, UniProt P05112 25-153, looked up, variant S16A)
Interleukin-4: HKCDITLQEIIKTLNALTEQKTLCTELTVTDIFAASKNTTEKETFCRAATVLRQFYSHHEKDTRCLGATAQQFHRHKQLIRFLKRLDRNLWGLAGLNSCPVKEANQSTLENFLERLKTIMREKYSKCSS
B5: 1IAR NA15A (protein, UniProt P05112 25-153, looked up, variant N15A)
Interleukin-4: HKCDITLQEIIKTLASLTEQKTLCTELTVTDIFAASKNTTEKETFCRAATVLRQFYSHHEKDTRCLGATAQQFHRHKQLIRFLKRLDRNLWGLAGLNSCPVKEANQSTLENFLERLKTIMREKYSKCSS
B6: 1IAR QA8A (protein, UniProt P05112 25-153, looked up, variant Q8A)
Interleukin-4: HKCDITLAEIIKTLNSLTEQKTLCTELTVTDIFAASKNTTEKETFCRAATVLRQFYSHHEKDTRCLGATAQQFHRHKQLIRFLKRLDRNLWGLAGLNSCPVKEANQSTLENFLERLKTIMREKYSKCSS
B7: 1REW QC86A (protein, UniProt P36894 24-152, looked up, variant Q86A)
extracellular domain: QNLDSMLHGTGMKSDSDQKKSENGVTLAPEDTLPFLKCYCSGHCPDDAINNTCITNGHCFAIIEEDDQGETTLASGCMKYEGSDFACKDSPKAQLRRTIECCRTNLCNQYLQPTLPPVVIGPFFDGSIR
modifications: extracellular domain
B8: 1JRH NI48A (protein, UniProt P15260 18-245, looked up, variant N48A)
extracellular domain: EMGTADLGPSSVPTPTNVTIESYNMNPIVYWEYQIMPQVPVFTVEVKAYGVKNSEWIDACINISHHYCNISDHVGDPSNSLWVRVKARVGQKESAYAKSEEFAVCRDGKIGPPKLDIRKEEKQIMIDIFHPSVFVNGDEQEVDYDPETTCYIRVYNVYVRMNGSEIQYKILTQKEDDCDEIQCQLAIPVSSLNSQYCVSAEGVLHVWGVTTEKSKEVCITIFNSSIKG
modifications: extracellular domain
B9: 1JRH SI54A (protein, UniProt P15260 18-245, looked up, variant S54A)
extracellular domain: EMGTADLGPSSVPTPTNVTIESYNMNPIVYWEYQIMPQVPVFTVEVKNYGVKNAEWIDACINISHHYCNISDHVGDPSNSLWVRVKARVGQKESAYAKSEEFAVCRDGKIGPPKLDIRKEEKQIMIDIFHPSVFVNGDEQEVDYDPETTCYIRVYNVYVRMNGSEIQYKILTQKEDDCDEIQCQLAIPVSSLNSQYCVSAEGVLHVWGVTTEKSKEVCITIFNSSIKG
modifications: extracellular domain
B10: 1JRH NI53A (protein, UniProt P15260 18-245, looked up, variant N53A)
extracellular domain: EMGTADLGPSSVPTPTNVTIESYNMNPIVYWEYQIMPQVPVFTVEVKNYGVKASEWIDACINISHHYCNISDHVGDPSNSLWVRVKARVGQKESAYAKSEEFAVCRDGKIGPPKLDIRKEEKQIMIDIFHPSVFVNGDEQEVDYDPETTCYIRVYNVYVRMNGSEIQYKILTQKEDDCDEIQCQLAIPVSSLNSQYCVSAEGVLHVWGVTTEKSKEVCITIFNSSIKG
modifications: extracellular domain
B11: 2PCC VA197A (protein, UniProt P00431 68-361, looked up, variant V197A)
Cytochrome c peroxidase, …: TTPLVHVASVEKGRSYEDFQKVYNAIALKLREDDEYDNYIGYGPVLVRLAWHTSGTWDKHDNTGGSYGGTYRFKKEFNDPSNAGLQNGFKFLEPIHKEFPWISSGDLFSLGGVTAVQEMQGPKIPWRCGRVDTPEDTTPDNGRLPDADKDADYVRTFFQRLNMNDREVVALMGAHALGKTHLKNSGYEGPWGAANNAFTNEFYLNLLNEDWKLEKNDANNEQWDSKSGYMMLPTDYSLIQDPKYLSIVKEYANDQDKFFKDFSKAFEKLLENGITFPKDAPSPFIFKTLEEQGL
B12: 1KTZ IB125A (protein, UniProt P37173 23-166, looked up, variant I125A)
extracellular domain: TIPPHVQKSVNNDMIVTDNNGAVKFPQLCKFCDVRFSTCDNQKSCMSNCSITSICEKPQEVCVAVWRKNDENITLETVCHDPKLPYHDFILEDAASPKCIMKEKKKPGETFFMCSCSSDECNDNAIFSEEYNTSNPDLLLVIFQ
modifications: extracellular domain

Legend:
[1] = test system: PPIs of the SKEMPI data set (by PDBID); assay: SKEMPI experimental ΔΔG, single mutations to alanine; type: binding; conditions: class by the 4.184 kJ/mol threshold; r_group DERKH
[2] = test system: PPIs of the SKEMPI data set (by PDBID); conditions: ref SKEMPI, cited from earlier work; for sk_ddG_kJ (SKEMPI experimental ΔΔG, mutation to alanine) / sk_ddG_kJ / sk_ddG_kJ (SKEMPI experimental ΔΔG): single mutation to alanine; for sk_ddG_kJ: SKEMPI experimental ΔΔG of binding; for sk_class: class of the SKEMPI experimental ΔΔG; for sk_class (class of SKEMPI experimental ΔΔG): class by ΔΔG threshold 4.184 kJ/mol
[3] = complex given by PDBID, residue group in r_group
[4] = complex given by PDBID, residue group SQNT
[5] = sheet sortedByGroup, r_group FAMILYVW

Molecule	sk_ddG_kJ ([2]; PPI given by PDBID) [kJ]	sk_class [2]	also measured
1GC1 EC92A	–	–	sk_class (class of the SKEMPI experimental ΔΔG) [1]: Neutral (neutral (little effect) 4.184 kJ/mol < ΔΔG > −4.184 kJ/mol); sk_ddG_kJ (SKEMPI experimental ΔΔG, mutation to alanine) ([2]; complex by PDBID, sheet sortedByGroup, r_group DERKH): 0.08 kJ
1GC1 NC30A	0.71	Neutral (neutral (little effect) 4.184 kJ/mol < ΔΔG > −4.184 kJ/mol)	–
1VFB SC24A	3.56	Neutral (neutral (little effect) 4.184 kJ/mol < ΔΔG > −4.184 kJ/mol)	–
1A22 PA48A	–	–	sk_class (class of SKEMPI experimental ΔΔG) [2]: Neutral (neutral (little effect) 4.184 kJ/mol < ΔΔG > −4.184 kJ/mol); sk_ddG_kJ (SKEMPI experimental ΔΔG, mutation to alanine) [2, 3]: 1.67 kJ
1DQJ SC100A	–	–	sk_ddG_kJ (SKEMPI experimental ΔΔG) [2, 4]: 3.26 kJ
1VFB VC120A	–	–	sk_class (class of SKEMPI experimental ΔΔG) [2]: Neutral (neutral (little effect) 4.184 kJ/mol < ΔΔG > −4.184 kJ/mol)
1GC1 SC60A	-0.38	Neutral (neutral (little effect) 4.184 kJ/mol < ΔΔG > −4.184 kJ/mol)	–
1GC1 SC31A	0.46	Neutral (neutral (little effect) 4.184 kJ/mol < ΔΔG > −4.184 kJ/mol)	–
1GC1 NC73A	-0.46	Neutral (neutral (little effect) 4.184 kJ/mol < ΔΔG > −4.184 kJ/mol)	–
1VFB IC124A	–	–	sk_class (class of SKEMPI experimental ΔΔG) [2]: Positive (positive (a hot residue) ΔΔG ≥ 4.184 kJ/mol)
1DQJ DC101A	–	–	sk_ddG_kJ ([2]; complex by PDBID): 6.07 kJ
1GC1 QC94A	-0.46	Neutral (neutral (little effect) 4.184 kJ/mol < ΔΔG > −4.184 kJ/mol)	–
1VFB LC129A	–	–	sk_class (class of SKEMPI experimental ΔΔG) [2]: Neutral (neutral (little effect) 4.184 kJ/mol < ΔΔG > −4.184 kJ/mol)
1A22 PA61A	–	–	sk_class (class of SKEMPI experimental ΔΔG) [2]: Positive (positive (a hot residue) ΔΔG ≥ 4.184 kJ/mol); sk_ddG_kJ (SKEMPI experimental ΔΔG, mutation to alanine) [2, 3]: 5.02 kJ
1DQJ TC89A	–	–	sk_ddG_kJ (SKEMPI experimental ΔΔG) [2, 4]: 3.51 kJ
1DQJ KC97A	–	–	sk_ddG_kJ ([2]; complex by PDBID): 14.73 kJ
1A22 PA59A	–	–	sk_class (class of SKEMPI experimental ΔΔG) [2]: Neutral (neutral (little effect) 4.184 kJ/mol < ΔΔG > −4.184 kJ/mol); sk_ddG_kJ (SKEMPI experimental ΔΔG, mutation to alanine) [2, 3]: 1.59 kJ
1DQJ YC20A	–	–	sk_ddG_kJ (SKEMPI experimental ΔΔG) [2, 5]: 13.77 kJ
1GC1 QC64A	1.84	Neutral (neutral (little effect) 4.184 kJ/mol < ΔΔG > −4.184 kJ/mol)	–
1VFB YC23A	–	–	sk_class (class of SKEMPI experimental ΔΔG) [2]: Neutral (neutral (little effect) 4.184 kJ/mol < ΔΔG > −4.184 kJ/mol)
1GC1 QC33A	0.46	Neutral (neutral (little effect) 4.184 kJ/mol < ΔΔG > −4.184 kJ/mol)	–
1DQJ KC96A	–	–	sk_ddG_kJ ([2]; complex by PDBID): 25.77 kJ

Molecule	sk_ddG_kJ ([2]; PPI given by PDBID) [kJ]	sk_class [2]	also measured
1DQJ WC63A	–	–	sk_ddG_kJ (SKEMPI experimental ΔΔG) [2, 5]: 5.65 kJ
1DQJ RC21A	–	–	sk_ddG_kJ ([2]; complex by PDBID): 4.90 kJ
1GC1 NC32A	0.75	Neutral (neutral (little effect) 4.184 kJ/mol < ΔΔG > −4.184 kJ/mol)	–
1GC1 SC23A	1.21	Neutral (neutral (little effect) 4.184 kJ/mol < ΔΔG > −4.184 kJ/mol)	–
1GC1 QC20A	-0.08	Neutral (neutral (little effect) 4.184 kJ/mol < ΔΔG > −4.184 kJ/mol)	–
1GC1 TC15A	1.34	Neutral (neutral (little effect) 4.184 kJ/mol < ΔΔG > −4.184 kJ/mol)	–
1GC1 TC17A	-0.54	Neutral (neutral (little effect) 4.184 kJ/mol < ΔΔG > −4.184 kJ/mol)	–
1DQJ LC75A	–	–	sk_ddG_kJ (SKEMPI experimental ΔΔG) ([2]; PPI given by PDBID, sheet sortedByGroup, r_group FAMILYVW): 6.07 kJ
1GC1 QC40A	-1.72	Neutral (neutral (little effect) 4.184 kJ/mol < ΔΔG > −4.184 kJ/mol)	–
1DQJ WC62A	–	–	sk_ddG_kJ (SKEMPI experimental ΔΔG) [2, 5]: 3.18 kJ
B1	-0.42	Neutral (neutral (little effect) 4.184 kJ/mol < ΔΔG > −4.184 kJ/mol)	–
B2	4.10	Neutral (neutral (little effect) 4.184 kJ/mol < ΔΔG > −4.184 kJ/mol)	–
B3	6.53	Positive (positive (a hot residue) ΔΔG ≥ 4.184 kJ/mol)	–
B4	-0.75	Neutral (neutral (little effect) 4.184 kJ/mol < ΔΔG > −4.184 kJ/mol)	–
B5	-0.13	Neutral (neutral (little effect) 4.184 kJ/mol < ΔΔG > −4.184 kJ/mol)	–
B6	-0.08	Neutral (neutral (little effect) 4.184 kJ/mol < ΔΔG > −4.184 kJ/mol)	–
B7	11.13	Positive (positive (a hot residue) ΔΔG ≥ 4.184 kJ/mol)	–
B8	2.64	Neutral (neutral (little effect) 4.184 kJ/mol < ΔΔG > −4.184 kJ/mol)	–
B9	1.92	Neutral (neutral (little effect) 4.184 kJ/mol < ΔΔG > −4.184 kJ/mol)	–
B10	19.71	Positive (positive (a hot residue) ΔΔG ≥ 4.184 kJ/mol)	–
B11	–	–	sk_class (class of SKEMPI experimental ΔΔG) [2]: Positive (positive (a hot residue) ΔΔG ≥ 4.184 kJ/mol); sk_ddG_kJ (SKEMPI experimental ΔΔG, mutation to alanine) [2, 3]: 8.74 kJ
B12	–	–	sk_class (class of SKEMPI experimental ΔΔG) [2]: Neutral (neutral (little effect) 4.184 kJ/mol < ΔΔG > −4.184 kJ/mol); sk_ddG_kJ (SKEMPI experimental ΔΔG, mutation to alanine) [2, 3]: 2.26 kJ
